In patent US8937065B2, “Compositions and methods for modulating a kinase” (Clevexel Pharma, priority 2011, dated 2015):

Tests used:
[1] = test system: NF-kB pathway, THP-1 cells; assay: NFkB-NFkB-bla THP-1 screen; conditions: Homo sapiens, read-out: IC50 Cell-based selectivity: NF-kB pathway THP-1 cells
Method: (§1) Mechanism-based inhibition assays using compound 7A (Table 1) were performed using GeneBLAzer® Technology (Invitrogen Corporation), according to manufacturer specifications. Briefly, GeneBLAzer® Technology uses a mammalian-optimized Beta-lactamase reporter gene (bla) combined with a FRET-enabled substrate to provide reliable and sensitive detection in intact cells. Cells were loaded with an engineered fluorescent substrate containing two fluorophores, coumarin and fluorescein. Without bla expression, the substrate molecule remains intact. In this state, excitation of the coumarin results in fluorescence resonance energy transfer to the fluorescein moiety and emission of green light. But when bla is expressed, the substrate is cleaved, the fluorophores are separated, and energy transfer is disrupted. Excitation of the coumarin in the presence of Beta-lactamase activity results in a blue fluorescence signal. […]
(§2) General Activator Assay Protocol • 1. […] The assay, plate was read on a fluorescence plate reader (Tecan Safire^2) and the data is analyzed.
NFkB-bla THP-1 cells were thawed and resuspended in Assay Media (RPMI, 10% dialyzed FBS, 0.1 mM NEAA, 1 mM Sodium Pyruvate, 100 U/mL/100 μg/mL Pen/Strep) to a concentration of 625,000 cells/mL. […] The plate was read on a fluorescence plate reader.

JAK2 pathway, TF-1 cells = assay: JAK2/STAT5-irf1-bla TF1 screen; conditions: Homo sapiens, read-out: IC50 Cell-based selectivity: JAK2 pathway TF-1 cells
Method: as §1, §2
irf1-bla TF1 cells were thawed and resuspended in Assay Media (OPTI-MEM, 0.5% dialyzed FBS, 0.1 mM NEAA, 1 mM Sodium Pyruvate, 100 U/mL/100 μg/mL Pen/Strep) to a concentration of 1,562,500 cells/mL. […] The plate is read on a fluorescence plate reader.

Compound O=C(CN1CCOCC1)Nc1cccc(-c2nc(-c3c[nH]c(C(=O)N4CCCC4)c3)cs2)c1 [7A, 2-morpholino-N-(3-(4-(5-(pyrrolidine-1-carbonyl)-1H-pyrrol-3-yl)thiazol-2-yl)phenyl)acetamide] has an IC50 [1] of 40.8 µM and an IC50 (JAK2 pathway, TF-1 cells) of 49.5 µM.
